Reference: PMC7248956, “Discovery of Novel Imidazopyridine GSK-3β Inhibitors Supported by Computational Approaches” (Molecules, 2020)
Where two headings read alike, the source gives them in different places.

Legend:
GSK-3β [1] = biological target: T1, GSK-3β (Homo sapiens, UniProt P49841); assay: in vitro GSK-3β inhibition assay; type: biochemical; details: IMID 1 and IMID 2 derivatives 7–18; average of duplicate wells
Protocol: Driven by the promising results, compounds 7–18 were synthesized as reported in Chemistry Section 2.1. Their biological activity was determined using an in vitro GSK-3β assay described elsewhere. […] In vitro MDCK-MDR1 permeability of IMID 1 and IMID 2 derivatives was also experimentally assessed (Table 1). […] In this respect, a decrease of TPSA was observed moving from INDZ 6 to the corresponding analogues 12 (IMID 1) and 18 (IMID 2), and from 3 to 15. The SAR analysis highlighted the detrimental impact of the positively charged piperidine ring of 2-8-14 triplet and derivative 13 on CNS permeability. […] When the piperidine was replaced with an oxanyl ring, while keeping the isopropoxypyridinyl group on the other side (2 vs. 4 and 8 vs. 10), a low CNS penetration was still observed, indicating a coexisting unfavorable contribution (high TPSA) of the R2 moiety to permeability. The comparison of the 4–10 pyridinyl derivatives with the corresponding 6–12 di-F-phenyl molecules confirmed an ameliorated BBB permeability when lipophilicity raises.

GSK-3β [2] = biological target: T1, GSK-3β; design: method as in PMID 26486317, PMID 32435391; details: cited from earlier work

T1 sequence (P49841 whole entry): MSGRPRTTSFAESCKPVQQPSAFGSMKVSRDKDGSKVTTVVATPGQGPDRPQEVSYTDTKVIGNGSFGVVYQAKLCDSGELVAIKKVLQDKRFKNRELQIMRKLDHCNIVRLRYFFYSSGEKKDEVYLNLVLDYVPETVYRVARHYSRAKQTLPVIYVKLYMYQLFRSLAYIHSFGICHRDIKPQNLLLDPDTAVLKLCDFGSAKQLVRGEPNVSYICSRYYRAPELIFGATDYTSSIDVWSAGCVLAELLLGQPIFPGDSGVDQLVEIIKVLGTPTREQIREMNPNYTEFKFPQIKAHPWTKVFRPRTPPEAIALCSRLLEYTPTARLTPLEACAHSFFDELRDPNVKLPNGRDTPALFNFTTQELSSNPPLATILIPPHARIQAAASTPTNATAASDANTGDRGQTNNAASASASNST

IC50 (GSK-3β [1]) | Compound | IC50 (GSK-3β [2]; INDZ derivatives 1–6, published ahead) | IC50 (GSK-3β [2]; INDZ derivatives)
180 nM | O=C(NCC1CCOCC1)c1ncn2ccc(-c3cccnc3)cc12 [Compound 9, 7-(Pyridin-3-yl)-N-((tetrahydro-2H-pyran-4-yl)methyl)imidazo[1,5-a]pyridine-1-carboxamide] |  | 
370 nM | COCCN1CCC(CNC(=O)c2ncc3ccc(-c4cccnc4)cn23)CC1 [Compound 13, N-((1-(2-Methoxyethyl)piperidin-4-yl)methyl)-6-(pyridin-3-yl)imidazo[1,5-a]pyridine-3-carboxamide] |  | 
120 nM | COCCN1CCC(CNC(=O)c2ncn3ccc(-c4cncc(OC(C)C)c4)cc23)CC1 [Compound 8, 7-(5-Isopropoxypyridin-3-yl)-N-((1-(2-methoxyethyl)piperidin-4-yl)methyl)imidazo[1,5-a]pyridine-1-carboxamide] |  | 
410 nM | COCCN1CCC(CNC(=O)c2ncn3ccc(-c4cccnc4)cc23)CC1 [Compound 7, N-((1-(2-Methoxyethyl)piperidin-4-yl)methyl)-7-(pyridin-3-yl)imidazo[1,5-a]pyridine-1-carboxamide] |  | 
91 nM | O=C(NCC1CCOCC1)c1ncc2ccc(-c3cccnc3)cn12 [Compound 15, 6-(Pyridin-3-yl)-N-((tetrahydro-2H-pyran-4-yl)methyl)imidazo[1,5-a]pyridine-3-carboxamide] |  | 
1400 nM | O=C(NCC1CCOCC1)c1ncn2ccc(-c3cnccc3CO)cc12 [Compound 11, 7-(4-(Hydroxymethyl)pyridin-3-yl)-N-((tetrahydro-2H-pyran-4-yl)methyl)imidazo [1,5-a]pyridine-1-carboxamide] |  | 
280 nM | O=C(NCC1CCOCC1)c1ncn2ccc(-c3cccc(F)c3F)cc12 [Compound 12, 7-(2,3-Difluorophenyl)-N-((tetrahydro-2H-pyran-4-yl)methyl)imidazo[1,5-a]pyridine-1-carboxamide] |  | 
240 nM | O=C(NCC1CCOCC1)c1ncc2ccc(-c3cccc(F)c3F)cn12 [Compound 18, 6-(2,3-Difluorophenyl)-N-((tetrahydro-2H-pyran-4-yl)methyl)imidazo[1,5-a]pyridine-3-carboxamide] |  | 
72 nM | CC(C)Oc1cncc(-c2ccc3cnc(C(=O)NCC4CCOCC4)n3c2)c1 [Compound 16, 6-(5-Isopropoxypyridin-3-yl)-N-((tetrahydro-2H-pyran-4-yl)methyl)imidazo[1,5-a]pyridine-3-carboxamide] |  | 
230 nM | COCCN1CCC(CNC(=O)c2ncc3ccc(-c4cncc(OC(C)C)c4)cn23)CC1 [Compound 14, 6-(5-Isopropoxypyridin-3-yl)-N-((1-(2-methoxyethyl)piperidin-4-yl)methyl)imidazo[1,5-a]pyridine-3-carboxamide] |  | 
 | COCCN1CCC(CNC(=O)c2n[nH]c3ccc(-c4cncc(OC(C)C)c4)cc23)CC1 [Compound 2] | 9 nM | 4 nM
910 nM | O=C(NCC1CCOCC1)c1ncc2ccc(-c3cnccc3CO)cn12 [Compound 17, 6-(4-(Hydroxymethyl)pyridin-3-yl)-N-((tetrahydro-2H-pyran-4-yl)methyl)imidazo[1,5-a]pyridine-3-carboxamide] |  | 
200 nM | CC(C)Oc1cncc(-c2ccn3cnc(C(=O)NCC4CCOCC4)c3c2)c1 [Compound 10, 7-(5-Isopropoxypyridin-3-yl)-N-((tetrahydro-2H-pyran-4-yl)methyl)imidazo[1,5-a]pyridine-1-carboxamide] |  | 
